In paper PMC10066365, “Nemacol is a small molecule inhibitor of C. elegans vesicular acetylcholine transporter with anthelmintic potential” (Nature Communications, 2023):
Values joined by “and” are separate entries in the source; they are usually repeats but may differ in a detail not shown here. Equal entries are not always repeated. Where two headings read alike, the source gives them in different places.

What was measured:
[1] = test system: C. elegans unc-17 mutants
Procedure: Significance was calculated using Fisher’s method (one-sided comparisons; see 'Methods'). […] Worms were incubated on the plates for 60 min.
Locomotor phenotype analyses were done in 24-well plates with 1 mL of MYOB substrate (27.5 g Trizma HCl, 12 g Trizma Base, 230 g bacto tryptone, 10 g NaCl, 0.4 g cholesterol (95%)) seeded with 25 µL of OP50 Escherichia coli on each well. Each compound was added to the MYOB substrate before pouring to achieve the desired final concentrations of 30 µM or 60 µM after diffusion through the media. Synchronized young adult worms are transferred into each well using a platinum wire pick. A Leica MZ75 stereomicroscope was used to visualize the movement of worms on the solid substrate. The specific dominant locomotor phenotype (i.e. ‘Punc’, ‘paralyzed’, ‘coiler’ or ‘wild-type locomotion’) was scored after the touch on the head with a platinum wire over a ~3–5 s of observation. […] Coiled animals were not scored as paralyzed despite sometimes not responding to light touch.

[2] = test system: Pristionchus pacificus; experiment: Pristionchus pacificus motor disruption dose-response on solid media, 1 h; conditions: for mean % any phene (coiled, jerky-Unc or paralyzed): Pristionchus pacificus young adults, mean of three biological replicates; for rep 1 atypical locomotion / rep 1 coiled / rep 1 no phene / rep 1 paralyzed: count of 20 animals per trial, one hour
[3] = unc-17 (e327), 15 µM, 60 min, single Bio Rep
[4] = unc-17 (e327), 30 µM, 60 min, single Bio Rep
[5] = unc-17 (e327), 60 µM, 60 min, single Bio Rep
[6] = unc-17 (e795), 15 µM, 60 min, average of 3 biological repeats
[7] = unc-17 (e795), 15 µM, young adult, average of 3 biological repeats
[8] = unc-17 (e795), 30 µM, young adult, average of 3 biological repeats
[9] = unc-17 (e795), 60 µM, young adult, average of 3 biological repeats
[10] = unc-17 (md414), 15 µM, 60 min, adult worms, average of 3 biological repeats
[11] = unc-17 (md414), 30 µM, 60 min, average of 3 biological repeats
[12] = unc-17 (md414), 60 µM, 60 min, average of 3 biological repeats
[13] = unc-17 (md414), 15 µM, 60 min, single Bio Rep
[14] = unc-17 (md414), 30 µM, 60 min, single Bio Rep
[15] = unc-17 (md414), 60 µM, 60 min, single Bio Rep

O=[N+]([O-])c1ccc(N2CCN(CC3CCCCC3)CC2)cc1 [Nemacol-1]
Fraction Jerky-Unc [1, 3]: 0.125 and 0.1667 | Fraction No Phenotype [1, 3]: 0.00 | J (jerky-unc) worm count [1, 3]: 3 and 2 | NP (no phene) worm count [1, 3]: 0 | Fraction Coiled, Averages of 3 biological repeats ([1]; unc-17 (e327), 30 µM, 60 min): 0.66 | Fraction Jerky-Unc, Averages of 3 biological repeats ([1]; unc-17 (e327), 30 µM, 60 min): 0.12 | Fraction No Phenotype, Averages of 3 biological repeats ([1]; unc-17 (e327), 30 µM, 60 min): 0.00 | Fraction Parayzed, Averages of 3 biological repeats ([1]; unc-17 (e327), 30 µM, 60 min): 0.23 | C1 (loose coil) worm count [1, 4]: 2 and 4 | C2 (tight coil) worm count [1, 4]: 8 and 9 and 7 | Fraction Coiled [1, 4]: 0.69 and 0.56 and 0.72 | Fraction No Phenotype [1, 4]: 0.00 | NP (no phene) worm count [1, 4]: 0 | Fraction Coiled, Averages of 3 biological repeats ([1]; unc-17 (e327), 60 µM, 60 min): 0.48 | Fraction Jerky-Unc, Averages of 3 biological repeats ([1]; unc-17 (e327), 60 µM, 60 min): 0.037 | Fraction No Phenotype, Averages of 3 biological repeats ([1]; unc-17 (e327), 60 µM, 60 min): 0.00 | Fraction Parayzed, Averages of 3 biological repeats ([1]; unc-17 (e327), 60 µM, 60 min): 0.48 | C1 (loose coil) worm count [1, 5]: 4 and 3 and 2 | Fraction No Phenotype [1, 5]: 0.00 | NP (no phene) worm count [1, 5]: 0 | P (paralyzed) worm count [1, 5]: 8 and 6 and 12 | Fraction Coiled [1, 6]: 0.81 | Fraction Jerky-Unc [1, 6]: 0.09 | Fraction No Phenotype [1, 6]: 0.00 | Fraction Parayzed [1, 6]: 0.09 | Fraction Coiled [1, 7]: 0.74 | Fraction Jerky-Unc [1, 7]: 0.24 | Fraction No Phenotype [1, 7]: 0.00 | Fraction Parayzed [1, 7]: 0.0185 | Fraction Coiled [1, 8]: 0.83 | Fraction Jerky-Unc [1, 8]: 0.0556 | Fraction No Phenotype [1, 8]: 0.00 | Fraction Parayzed [1, 8]: 0.11 | Fraction Coiled [1, 9]: 0.63 | Fraction Jerky-Unc [1, 9]: 0.0556 | Fraction No Phenotype [1, 9]: 0.00 | Fraction Parayzed [1, 9]: 0.31 | Fraction Coiled [1, 10]: 0.19 | Fraction Jerky-Unc [1, 10]: 0.60 | Fraction No Phenotype [1, 10]: 0.21 | Fraction Parayzed [1, 10]: 0.00 | Fraction Coiled [1, 11]: 0.44 | Fraction Jerky-Unc [1, 11]: 0.47 | Fraction No Phenotype [1, 11]: 0.037 | Fraction Parayzed [1, 11]: 0.06 | Fraction Coiled [1, 12]: 0.59 | Fraction Jerky-Unc [1, 12]: 0.27 | Fraction No Phenotype [1, 12]: 0.00 | Fraction Parayzed [1, 12]: 0.13 | Fraction Coiled, Averages of 3 biological repeats ([1]; unc-17 (md414), 15 µM, 60 min): 0.25 | Fraction Jerky-Unc, Averages of 3 biological repeats ([1]; unc-17 (md414), 15 µM, 60 min): 0.52 | Fraction No Phenotype, Averages of 3 biological repeats ([1]; unc-17 (md414), 15 µM, 60 min): 0.23 | Fraction Parayzed, Averages of 3 biological repeats ([1]; unc-17 (md414), 15 µM, 60 min): 0.00 | C1 (loose coil) worm count [1, 13]: 1 and 2 | Fraction Jerky-Unc [1, 13]: 0.35 and 0.6111 and 0.5882 | Fraction Parayzed [1, 13]: 0 | J (jerky-unc) worm count [1, 13]: 11 and 7 and 10 | P (paralyzed) worm count [1, 13]: 0 | Fraction Coiled, Averages of 3 biological repeats ([1]; unc-17 (md414), 30 µM, 60 min): 0.54 | Fraction Jerky-Unc, Averages of 3 biological repeats ([1]; unc-17 (md414), 30 µM, 60 min): 0.44 | Fraction No Phenotype, Averages of 3 biological repeats ([1]; unc-17 (md414), 30 µM, 60 min): 0.00 | Fraction Parayzed, Averages of 3 biological repeats ([1]; unc-17 (md414), 30 µM, 60 min): 0.0185 | C1 (loose coil) worm count [1, 14]: 4 and 2 and 3 | C2 (tight coil) worm count [1, 14]: 5 and 8 and 6 | Fraction Coiled [1, 14]: 0.50 and 0.63 | Fraction Jerky-Unc [1, 14]: 0.5 and 0.4444 and 0.375 | Fraction No Phenotype [1, 14]: 0.00 | J (jerky-unc) worm count [1, 14]: 8 and 9 and 6 | NP (no phene) worm count [1, 14]: 0 | Fraction Coiled, Averages of 3 biological repeats ([1]; unc-17 (md414), 60 µM, 60 min): 0.49 | Fraction Jerky-Unc, Averages of 3 biological repeats ([1]; unc-17 (md414), 60 µM, 60 min): 0.28 | Fraction No Phenotype, Averages of 3 biological repeats ([1]; unc-17 (md414), 60 µM, 60 min): 0.00 | Fraction Parayzed, Averages of 3 biological repeats ([1]; unc-17 (md414), 60 µM, 60 min): 0.22 | C2 (tight coil) worm count [1, 15]: 6 | Fraction Coiled [1, 15]: 0.56 and 0.59 and 0.33 | Fraction No Phenotype [1, 15]: 0.00 | J (jerky-unc) worm count [1, 15]: 6 and 3 | NP (no phene) worm count [1, 15]: 0 | mean % any phene (coiled, jerky-Unc or paralyzed) ([2]; conc 3.75, observed at one hour): 0% | mean % any phene (coiled, jerky-Unc or paralyzed) ([2]; conc 15, observed at one hour): 56.6667% | mean % any phene (coiled, jerky-Unc or paralyzed) ([2]; conc 60, observed at one hour): 100% | EC50 ([2]; Pristionchus pacificus, 1 h, read-out: P. pacificus motor disruption EC50): 14.1 ± 2.9 µM | rep 1 atypical locomotion ([2]; conc 3.75): 4 | rep 1 coiled ([2]; conc 3.75): 1 | rep 1 no phene ([2]; conc 3.75): 15 | rep 1 paralyzed ([2]; conc 3.75): 0 | rep 1 atypical locomotion ([2]; conc 15): 13 | rep 1 coiled ([2]; conc 15): 1 | rep 1 no phene ([2]; conc 15): 6 | rep 1 paralyzed ([2]; conc 15): 0 | rep 1 atypical locomotion ([2]; conc 60): 0 | rep 1 coiled ([2]; conc 60): 2 | rep 1 no phene ([2]; conc 60): 0 | rep 1 paralyzed ([2]; conc 60): 18
